Test results from the supplement of paper PMC10307832.

Tests used:
Assay in all cases: relative viability (nuclei count vs DMSO), 5 days (fraction); higher = more cells survive
PC-14 = test system: PC-14
How it was run: (§1)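 Lung cancer cell lines in 1536-well plates got either a single drug or a fixed anchor-drug dose together with five library-drug doses (not always all listed) in √10 steps, by pin tool, on the day after seeding. Nuclei were counted after 5 days, and relative viability is the treated-to-vehicle ratio of nuclei counts. Values are medians of duplicate plates.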

NCI-H1792 = test system: NCI-H1792
How it was run: as §1

NCI-H596 = test system: NCI-H596
How it was run: as §1

NCI-H441 = test system: NCI-H441
How it was run: as §1

NCI-H2347 = test system: NCI-H2347
How it was run: as §1

NCI-H1355 = test system: NCI-H1355
How it was run: as §1

RERF-LC-KJ = test system: RERF-LC-KJ
How it was run: as §1

LCLC-103H = test system: LCLC-103H
How it was run: as §1

NCI-H727 = test system: NCI-H727
How it was run: as §1

NCI-H1915 = test system: NCI-H1915
How it was run: as §1

NCI-H322M = test system: NCI-H322M
How it was run: as §1

NCI-H650 = test system: NCI-H650
How it was run: as §1

NCI-H3122 = test system: NCI-H3122
How it was run: as §1

NCI-H1563 = test system: NCI-H1563
How it was run: as §1

NCI-H460 = test system: NCI-H460
How it was run: as §1

NCI-H1651 = test system: NCI-H1651
How it was run: as §1

NCI-H2170 = test system: NCI-H2170
How it was run: as §1

NCI-H1755 = test system: NCI-H1755
How it was run: as §1

SK-MES-1 = test system: SK-MES-1
How it was run: as §1

NCI-H661 = test system: NCI-H661
How it was run: as §1

SW 900 = test system: SW 900
How it was run: as §1

LXF-289 = test system: LXF-289
How it was run: as §1

NCI-H522 = test system: NCI-H522
How it was run: as §1

NCI-H520 = test system: NCI-H520
How it was run: as §1

Clc1ccc(Nc2nnc(Cc3ccncc3)c3ccccc23)cc1 [Vatalanib] + Cc1nc(Nc2ncc(C(=O)Nc3c(C)cccc3Cl)s2)cc(N2CCN(CCO)CC2)n1 [Dasatinib] (partner 0.075 µM)
relative viability (PC-14; first compound 0.04 µM): 0.318 | relative viability (PC-14; first compound 0.1265 µM): 0.248 | relative viability (PC-14; first compound 0.4 µM): 0.34 | relative viability (PC-14; first compound 1.265 µM): 0.244 | relative viability (PC-14; first compound 4 µM): 0.245 | relative viability (NCI-H1792; first compound 0.04 µM): 0.724 | relative viability (NCI-H1792; first compound 0.1265 µM): 0.814 | relative viability (NCI-H1792; first compound 0.4 µM): 0.758 | relative viability (NCI-H1792; first compound 1.265 µM): 0.811 | relative viability (NCI-H1792; first compound 4 µM): 0.759 | relative viability (NCI-H596; first compound 0.04 µM): 0.643 | relative viability (NCI-H596; first compound 0.1265 µM): 0.652 | relative viability (NCI-H596; first compound 0.4 µM): 0.637 | relative viability (NCI-H596; first compound 1.265 µM): 0.518 | relative viability (NCI-H596; first compound 4 µM): 0.592 | relative viability (NCI-H441; first compound 0.04 µM): 0.634 | relative viability (NCI-H441; first compound 0.1265 µM): 0.627 | relative viability (NCI-H441; first compound 0.4 µM): 0.573 | relative viability (NCI-H441; first compound 1.265 µM): 0.605 | relative viability (NCI-H441; first compound 4 µM): 0.551 | relative viability (NCI-H2347; first compound 0.04 µM): 0.295 | relative viability (NCI-H2347; first compound 0.1265 µM): 0.352 | relative viability (NCI-H2347; first compound 0.4 µM): 0.342 | relative viability (NCI-H2347; first compound 1.265 µM): 0.28 | relative viability (NCI-H2347; first compound 4 µM): 0.385 | relative viability (NCI-H1355; first compound 0.04 µM): 0.75 | relative viability (NCI-H1355; first compound 0.1265 µM): 0.728 | relative viability (NCI-H1355; first compound 0.4 µM): 0.778 | relative viability (NCI-H1355; first compound 1.265 µM): 0.603 | relative viability (NCI-H1355; first compound 4 µM): 0.633 | relative viability (RERF-LC-KJ; first compound 0.04 µM): 0.851 | relative viability (RERF-LC-KJ; first compound 0.1265 µM): 0.828 | relative viability (RERF-LC-KJ; first compound 0.4 µM): 0.809 | relative viability (RERF-LC-KJ; first compound 1.265 µM): 0.623 | relative viability (RERF-LC-KJ; first compound 4 µM): 0.593 | relative viability (LCLC-103H; first compound 0.04 µM): 0.428 | relative viability (LCLC-103H; first compound 0.1265 µM): 0.462 | relative viability (LCLC-103H; first compound 0.4 µM): 0.543 | relative viability (LCLC-103H; first compound 1.265 µM): 0.484 | relative viability (LCLC-103H; first compound 4 µM): 0.396 | relative viability (NCI-H727; first compound 0.04 µM): 0.339 | relative viability (NCI-H727; first compound 0.1265 µM): 0.37 | relative viability (NCI-H727; first compound 0.4 µM): 0.326 | relative viability (NCI-H727; first compound 1.265 µM): 0.41 | relative viability (NCI-H727; first compound 4 µM): 0.425 | relative viability (NCI-H1915; first compound 0.04 µM): 0.322 | relative viability (NCI-H1915; first compound 0.1265 µM): 0.321 | relative viability (NCI-H1915; first compound 0.4 µM): 0.339 | relative viability (NCI-H1915; first compound 1.265 µM): 0.279 | relative viability (NCI-H1915; first compound 4 µM): 0.349 | relative viability (NCI-H322M; first compound 0.04 µM): 0.248 | relative viability (NCI-H322M; first compound 0.1265 µM): 0.238 | relative viability (NCI-H322M; first compound 0.4 µM): 0.256 | relative viability (NCI-H322M; first compound 1.265 µM): 0.247 | relative viability (NCI-H322M; first compound 4 µM): 0.256 | relative viability (NCI-H650; first compound 0.04 µM): 0.434 | relative viability (NCI-H650; first compound 0.1265 µM): 0.448 | relative viability (NCI-H650; first compound 1.265 µM): 0.399 | relative viability (NCI-H650; first compound 4 µM): 0.434 | relative viability (NCI-H3122; first compound 0.04 µM): 0.986 | relative viability (NCI-H3122; first compound 0.1265 µM): 0.838 | relative viability (NCI-H3122; first compound 0.4 µM): 0.795 | relative viability (NCI-H3122; first compound 1.265 µM): 0.768 | relative viability (NCI-H3122; first compound 4 µM): 0.787 | relative viability (NCI-H1563; first compound 0.04 µM): 0.45 | relative viability (NCI-H1563; first compound 0.1265 µM): 0.479 | relative viability (NCI-H1563; first compound 0.4 µM): 0.428 | relative viability (NCI-H1563; first compound 1.265 µM): 0.456 | relative viability (NCI-H1563; first compound 4 µM): 0.346 | relative viability (NCI-H460; first compound 0.04 µM): 0.558 | relative viability (NCI-H460; first compound 0.1265 µM): 0.498 | relative viability (NCI-H460; first compound 0.4 µM): 0.54 | relative viability (NCI-H460; first compound 1.265 µM): 0.351 | relative viability (NCI-H460; first compound 4 µM): 0.409 | relative viability (NCI-H1651; first compound 0.04 µM): 0.317 | relative viability (NCI-H1651; first compound 0.1265 µM): 0.31 | relative viability (NCI-H1651; first compound 0.4 µM): 0.421 | relative viability (NCI-H1651; first compound 1.265 µM): 0.462 | relative viability (NCI-H1651; first compound 4 µM): 0.372 | relative viability (NCI-H2170; first compound 0.04 µM): 0.521 | relative viability (NCI-H2170; first compound 0.1265 µM): 0.486 | relative viability (NCI-H2170; first compound 0.4 µM): 0.556 | relative viability (NCI-H2170; first compound 1.265 µM): 0.483 | relative viability (NCI-H2170; first compound 4 µM): 0.507 | relative viability (NCI-H1755; first compound 0.04 µM): 0.496 | relative viability (NCI-H1755; first compound 0.1265 µM): 0.418 | relative viability (NCI-H1755; first compound 0.4 µM): 0.514 | relative viability (NCI-H1755; first compound 1.265 µM): 0.413 | relative viability (NCI-H1755; first compound 4 µM): 0.381 | relative viability (SK-MES-1; first compound 0.04 µM): 0.346 | relative viability (SK-MES-1; first compound 0.1265 µM): 0.439 | relative viability (SK-MES-1; first compound 0.4 µM): 0.32 | relative viability (SK-MES-1; first compound 1.265 µM): 0.348 | relative viability (SK-MES-1; first compound 4 µM): 0.34 | relative viability (NCI-H661; first compound 0.04 µM): 0.935 | relative viability (NCI-H661; first compound 0.1265 µM): 0.854 | relative viability (NCI-H661; first compound 0.4 µM): 1.06 | relative viability (NCI-H661; first compound 1.265 µM): 0.853 | relative viability (NCI-H661; first compound 4 µM): 0.804 | relative viability (SW 900; first compound 0.1265 µM): 0.535 | relative viability (SW 900; first compound 0.4 µM): 0.599 | relative viability (SW 900; first compound 1.265 µM): 0.474 | relative viability (SW 900; first compound 4 µM): 0.417 | relative viability (LXF-289; first compound 0.04 µM): 0.233 | relative viability (LXF-289; first compound 0.1265 µM): 0.269 | relative viability (LXF-289; first compound 0.4 µM): 0.336 | relative viability (LXF-289; first compound 1.265 µM): 0.283 | relative viability (LXF-289; first compound 4 µM): 0.204 | relative viability (NCI-H522; first compound 0.04 µM): 0.843 | relative viability (NCI-H522; first compound 0.1265 µM): 0.857 | relative viability (NCI-H522; first compound 0.4 µM): 0.912 | relative viability (NCI-H522; first compound 1.265 µM): 1.04 | relative viability (NCI-H522; first compound 4 µM): 0.828 | relative viability (NCI-H520; first compound 0.04 µM): 0.205 | relative viability (NCI-H520; first compound 0.1265 µM): 0.202 | relative viability (NCI-H520; first compound 0.4 µM): 0.218 | relative viability (NCI-H520; first compound 1.265 µM): 0.161 | relative viability (NCI-H520; first compound 4 µM): 0.126
